Measured values reported in US12678503B2, “Water-activated mucoadhesive compositions and methods of delivering biologically active substances” (The Brigham and Women's Hospital, Inc., priority 2019, dated 2026).

Experiments:
[1] = test system: Sprague-Dawley (SD) rats; test: microCT imaging of coating in the GI tract; format: in vivo, rat; conditions: gavaged to SD rats
Description: Sprague-Dawley (SD) rats were gavaged into the stomach with hydrated AF-LuCI pastes and imaged using micro-computed tomography (microCT). AF-LuCI pastes could be visualized on gastro-intestinal tissues without additional contrast agents owing to the presence of aluminum. For these experiments, rats were fasted overnight and gavaged directly into the stomach with 450 mg/kg rat of AF-LuCI paste hydrated in 0.9 w/v % normal saline solution. After 1 hr and 5 hr, the rats were anesthetized using isoflurane and imaged using microCT. […] FIG. 18A is a coronal plane view of SD rats gavaged with AF-LuCI 1 hr before the imaging. AF-LuCI formed a layer in stomach, duodenum and proximal intestine. FIGS. 18B and 18C are 3-dimentional views of SD rats gavaged with AF-LuCI (FIG. 18B) 1 hr and (FIG. 18C) 5 hr before the microCT imaging. AF-LuCI is attached on stomach, duodenum and proximal intestine at least for 5 hrs after gavage while sucralfate only formed sparsely scattered aggregates on the healthy mucosa

[2] = Dissolution in NaCl solutions; format: physicochemical; conditions: saturated NaCl solutions (~0.35 g/ml in water)
Text: […] This is a characteristic behavior of liquid complex coacervate system (See Wang, Q. & Schlenoff, J. B. The Polyelectrolyte Complex/Coacervate Continuum. Macromolecules 47, 3108-3116 (2014); de Kruif, C. G., Weinbreck, F. & de Vries, R. Complex coacervation of proteins and anionic polysaccharides. Current Opinion in Colloid & Interface Science 9, 340-349 (2004); Veis, A. & Aranyi, C. PHASE SEPARATION IN POLYELECTROLYTE SYSTEMS. I. COMPLEX COACERVATES OF GELATIN. J. Phys. Chem. 64, 1203-1210 (1960)).

[3] = cited from earlier work
[4] = Integrative barrier property test, glucose permeation in Franz-cell system
Description: To examine the barrier properties of pastes formed from the new hydratable compositions in vitro, a mucin-coated membrane was prepared to mimic the mucus surface of the intestine. Specifically, a cellulose nitrate membrane (pore size: 0.2 μm, Whatman, Germany) was incubated in a 3% w/v porcine stomach mucin (Sigma Aldrich, USA) solution in PBS (pH 7.4) and gently shaken for 2 hours at room temperature. The membrane was washed with distilled deionized water (DDW, pH 5.5) to remove the excess mucin solution. The mucin-coated membranes were used within 1 hour following preparation.
To measure the thickness of the mucin layer, the mucin-coated membrane was lyophilized and imaged using scanning electron microscope (SEM) and the thickness of randomly selected positions was examined (average mucin layer thickness: ~100 μm). To test the nutrient barrier properties, 10 mg of sucralfate or AF-LuCI was added evenly to a mucin-coated membrane and vertically tilted for 1 minute. […]
The permeation tests were performed in triplicate for each material. The glucose concentration was measured using high performance liquid chromatography (HPLC, Agilent, USA) with an analytical C18 column (Zorbax Eclipse XDB-C18, Agilent). […]

[5] = Film thickness of hydrated paste on mucus-coated cellulose nitrate membrane; format: physicochemical
Description: Five hundred milligrams of AF-LuCI (excess) was added onto mucus-coated cellulose nitrate membrane (disk shape with 2 cm diameter) and DDW (pH 5.5), SGF (pH 1.0), or SIF (pH 6.5) was added immediately. After AF-LuCI becomes a paste and flow to form a layer (3-5 minutes), supernatant was removed and the paste-coated membrane was quickly frozen in −80° C. freezer to measure the thickness. The thickness of the mucus-coated cellulose nitrate membrane without AF-LuCI was separately measured as a baseline.

[6] = Degree of polymerization of PAC by titration; format: physicochemical; conditions: native sucralfate
Description: Experiments were performed to determine the degree of polymerization in AF-LuCI by using the titration-based methods as described in Nail, S. L., White, J. L. & Hem, S. L. Structure of Aluminum Hydroxide Gel I. Initial Precipitate. Journal of Pharmaceutical Sciences 65, 1188-1191 (1976); and Hem, J. D. & Roberson, C. E. Form and stability of aluminum hydroxide complexes in dilute solution. Geol Surv Water-Supply Pap (US); (United States) (1967). The degree of polymerization of PACs in AF-LuCI and sucralfate molecule was determined using titration method based on the reversible protonation of hydroxo linkages in the PAC backbone. Approximately 10 mg of AF-LuCI were treated with 0.1N, 0.2N, 0.3N, 0.4N and 0.5N HCl solutions in different tubes. The samples were vortexed for 5 seconds followed by 1-hour incubation. The supernatant of each sample was then collected and the pH was measured using a pH meter. The same procedures were performed with sucralfate. The pH of the HCl solutions was measured as the control group and the difference between the control and the treated groups was calculated. The difference in pH corresponds to the proton consumption and the amount of hydroxo linkages that were then used to calculate the number of aluminum per molecule.

[7] = Aluminum release in simulated GI fluids; format: physicochemical; conditions: simulated gastric fluid (SGF, pH 1.0)
[8] = test system: SD rats; test: OGTT with different viscosity, dose and dosing schedule (Example 12); format: in vivo, rat; conditions: normal SD rats
Description: Experiments were then performed to assess if the AF-LuCI coating could lower glucose response. To evaluate the in vivo effect of the barrier coating from AF-LuCI on postprandial glucose response, SD rats were pre-gavaged with the AF-LuCI pastes and standard OGTT was performed. AF-LuCI at different dosage but also different viscosity. It was hypothesized that low viscosity product may lead to barrier formation in larger area and earlier duodenal coating (onset of action). For these studies, rats were fasted overnight and gavaged with AF-LuCI pastes (dose: 450-2,700 mg/kg rat; viscosity: high and low), or saline as a control. One or three hours later, glucose solution (2 g/kg rat) was gavaged and changes in serum glucose levels measured every 30 minutes over the subsequent 120 min (n=4 per arm). Tail vein blood was used to measure glucose levels using glucometer. […] The time gap between AF-LuCI administration and glucose gavage also affects the reduction of blood glucose responses differently depending on the AF-LuCI formulations (FIG. 19C). 3 hr after treatment with 450 mg/kg rat lower viscosity AF-LuCI (i.e. 5 Pa·s), the reduction in glucose response decreased to 7%. In FIG. 19, AF-LuCI fabricated using 0.4N, 0.5N, and 0.6N HCl solution and rehydrated in 0.9 w/v % normal saline is denoted as “Viscosity High”, “Viscosity Mid”, and “Viscosity Low”, respectively.

sucralfate
layer formation in the GI tract (microCT) [1]: did not form a layer | amount dissolved [2]: Less than 5 w/w % | aluminum content of sucralfate (USP regulation) [3]: 15.5-18.5 w/w % of the total weight | glucose penetration blocked ([4]; SGF, 10 mg on mucin-coated membrane, 120 g/L glucose, 5 minutes): ~ 60% | glucose blocked ([4]; applied on mucus-coated membrane in pH 1.0, then pH 4.0): 16.5% | layer formation ([5]; distilled water or SIF): did not form any layer | thickness of layer ([5]; only in SGF (pH 1.0)): ~ 250 μm | number of aluminum ions per molecule [6]: 56.1±3.0 aluminum per molecule | release of aluminum [7]: 15 w/w % of total aluminum content | area under curve (AUC) in OGTT vs saline treated group [8]: no significant difference
